Patent US20120264928A1, “THERAPEUTIC PHARMACEUTICAL AGENT FOR DISEASES ASSOCIATED WITH DECREASE IN FUNCTION OF GNE PROTEIN, FOOD COMPOSITION, AND FOOD ADDITIVE” (JAPAN HEALTH SCIENCES FOUNDATION, priority 2009, published 2012)

Assays:
Format in all cases: in vivo
DMRV model mice [1] = experiment: Muscle contraction test; settings: vs placebo group
Description: (§1) 20 mg/kg body weight/day of ManNAc (N=6), NeuAc (N=5), or sialyllactose (N=7) dissolved in drinking water was administered to the DMRV model mice between 11- to 15-week old and 56- to 58-week old for 43 to 45 weeks. 40 mg (N=5) or 400 mg/kg body weight/day (N=4) of Ac4ManNAc dissolved in drinking water was administered to the DMRV model mice of the same ages for 43 to 47 weeks. Drinking water free of the pharmaceutical agents was supplied to mice in a placebo group.
(§2) During the administration of the pharmaceutical agent, the measurement of the body weight, the determination of the survival rate, blood collection (0, 25, and 49 days after the start of administration, and thereafter at intervals of 28 days), and a hanging test (0 and 49 days after the start of administration, and thereafter at intervals of 56 days) were performed at regular intervals. Survivors after the administration (ManNAc-treated group: N=5, NeuAc-treated group: N=5, sialyllactose group: N=6) were subjected to a treadmill test. A muscle tissue was then excised and was subjected to a muscle contraction test, the measurement of the amount of NeuAc, and pathological observation.
After pentobarbital sodium (40 mg/kg body weight) was intraperitoneally administered to a mouse for anesthesia, a continuous muscle tissue of the tibialis anterior muscle and the gastrocnemius muscle was isolated. A terminal tendon of the isolated muscle tissue and the tibia were tied with a thread. The ends of the thread were connected at right angles to a tube for hanging a thread (a muscle length controller) and an isotonic transducer (TB-651T (for the gastrocnemius muscle) or TB-653TD-112S (for the tibialis anterior muscle), Nihon Kohden Corp.). The muscle tissue was placed in a lactated Ringer's solution (95% O2, 5% CO2). An electrostimulator (SEN-3301, Nihon Kohden Corp.) and an amplifier (PP-106H, Nihon Kohden Corp.) were used to expand the muscle tissue while providing 400 μs twitch stimulation. A length (L0) at which the maximum contractile force was produced and the contractile force (isometric contractile force: Pt) at that length were measured. While the muscle tissue was held at the length (L0) at which the contractile force was produced, the electrical stimulation was […] to 3 ms. The maximum contractile force (P0) was determined while 10- to 1000-Hz repetitive stimulation was provided 300 to 600 times at intervals of 2 minutes or more. After the measurement, the average cross-sectional area (CSA: muscle weight/L0) of the muscle tissue was calculated.

DMRV model mice [2] = experiment: Pathological observation of muscle tissue
Description: as §1, §2
The gastrocnemius muscle used in the muscle contraction test was frozen in isopentane cooled by liquid nitrogen, and a frozen section having a thickness of 6 μm was prepared with a cryostat. The section was placed on a slide glass. Hematoxylin-eosin (H-E) staining, acid phosphatase activity staining (see Malicdan et al., Method. Enzymol., 453, 379-396, 2009), or Gomori trichrome staining (see Malicdan et al., Method. Enzymol., 453, 379-396, 2009) were performed on adjacent sections. These sections were observed under an optical microscope. A frozen section having a thickness of 10 μm prepared in the same manner as described above was fixed with 4% paraformaldehyde, was stained with congo red, and was observed under a fluorescence microscope.
A frozen section having a thickness of 6 μm prepared in the same manner as described above was fixed with acetone and was blocked with a blocking solution (PBS containing 5% goat normal sera or 2% casein). The section was incubated with an anti-autophagy marker protein LC3 rabbit polyclonal antibody (NB100-2220, Novus Biologicals, 100 times dilution), an anti-β-amyloid rabbit polyclonal antibody (Aβ1-40, AB5074P, Chemicon, 100 times dilution), an anti-β-amyloid rabbit polyclonal antibody (Aβ1-42, AB5078P, Chemicon, 100 times dilution), an anti-phosphorylated tau mouse monoclonal antibody (90206, Innogenetics, 100 times dilution), an anti-amyloid mouse monoclonal antibody (6E10, Covance, 400 times dilution), an anti-p62 protein rabbit polyclonal antibody (PW9860, Biomol, 500 times dilution), or an anti-lysosome-associated membrane protein 2 (Lamp 2) rabbit polyclonal antibody (ABL-93, obtained from Developmental Studies Hybridoma Bank at the University of Iowa, 100 times dilution) at room temperature for one hour. If necessary, Alexa Fluor 488 or 568 labeled anti-rabbit/mouse IgG(H+L) (Molecular Probes) was used as a secondary antibody. Immunostained preparations of these sections were observed under a fluorescence microscope. The congo red staining and the LC3 labeling were performed on adjacent sections.
It is known that rimmed vacuoles found in muscle tissues of a patient suffering from myopathy are positive for acid phosphatase. […] Tau protein is phosphorylated with amyloid β-protein. In myopathy caused by a mutation of the GNE gene, it is known that lysosomal vesicles that contain localized Lamp 2 protein are accumulated. It is also known that p62 protein recognizes polyubiquitin protein and directly binds to LC3 to induce autophagy in a portion that contains accumulated polyubiquitinated protein. In a muscle tissue affected by myopathy, p62 protein is colocalized with amyloid.

DMRV model mice [3] = experiment: Blood creatine kinase activity; settings: 20 mg/kg body weight/day in drinking water; vs placebo group
Description: as §1, §2
During the administration of the pharmaceutical agent, blood was collected from a tail of a mouse at regular intervals. The blood was centrifuged to prepare blood serum. Blood creatine activity was measured with a Determiner CPK-L kit (Kyowa Medex Co., Ltd.). The blood serum was electrophoresed using a Titan Gel Isoenzyme kit (Helen Laboratories) to identify creatine kinase. It is known that creatine kinase moves into blood when strenuous exercise or myopathy damages muscle fibers.

DMRV model mice [4] = experiment: Number of formed rimmed vacuoles and amyloid-positive cells; settings: 20 mg/kg body weight/day in drinking water; vs placebo group
Description: as §1, §2
In six H-E stained pathological sections having a thickness of 10 μm prepared at intervals of 100 μm, the number of rimmed vacuoles observed over the cross section of the muscular tissue was counted. In order to count the number of amyloid-positive protein deposits, the number of cells having deposits labeled with an anti-amyloid antibody (6E10) observed over the cross section of the muscular tissue was counted in six sections having a thickness of 10 μm prepared at intervals of 100 μm.

[5] = 20 mg/kg body weight/day in drinking water
[6] = 20 mg/kg body weight/day in drinking water, vs placebo group

| Compound | blood creatine kinase activity (DMRV model mice [3]) | Pt per cross-sectional area of the muscle (DMRV model mice [1]; [5]) | cross-sectional area of the gastrocnemius muscle (DMRV model mice [1]; [5]) | specific contractile force of the gastrocnemius muscle (P0 per cross-sectional area of the muscle) (DMRV model mice [1]; [5]) | acid phosphatase activity staining (DMRV model mice [2]; [5]) | congo red staining (amyloid) (DMRV model mice [2]; [5]) | labeling with the anti-phosphorylated tau antibody (DMRV model mice [2]; [5]) | rimmed vacuoles and muscle cell atrophy (H-E staining) (DMRV model mice [2]; [5]) | labeling with the anti-amyloid antibodies (LC3, Aβ1-40, and Aβ1-42) (DMRV model mice [2]; [6]) | number of amyloid positive cells (DMRV model mice [4]) | number of rimmed vacuoles (DMRV model mice [4]) | further results |
| --- | --- | --- | --- | --- | --- | --- | --- | --- | --- | --- | --- | --- |
| CC(=O)N[C@@H]1C(OC(C)=O)O[C@H](COC(C)=O)[C@@H](OC(C)=O)[C@@H]1OC(C)=O (stereo partly shown) [Ac4ManNAc, Tetra-O-acetyl-N-acetylmannosamine] | – | – | – | – | – | – | – | – | – | – | – | specific contractile force of the gastrocnemius muscle (DMRV model mice [1]; 40 mg/kg): significantly higher; Pt per cross-sectional area of the muscle (DMRV model mice [1]; 400 mg/kg): significantly higher; specific contractile force of the gastrocnemius muscle (DMRV model mice [1]; 400 mg/kg): significantly higher; Aβ1-42 labeling (DMRV model mice [2]; 40 mg/kg): negative; Lamp 2 staining (DMRV model mice [2]; 40 mg/kg): very slightly stained; acid phosphatase activity staining (DMRV model mice [2]; 40 mg/kg): dispersed sites that were positive; p62 protein labeling (DMRV model mice [2]; 40 mg/kg): negative; frequencies of rimmed vacuoles and muscular atrophy (DMRV model mice [2]; 40 mg/kg, vs placebo group): much lower; Aβ1-42 labeling (DMRV model mice [2]; 400 mg/kg): negative; Lamp 2 staining (DMRV model mice [2]; 400 mg/kg): negative; acid phosphatase activity staining (DMRV model mice [2]; 400 mg/kg): negative; p62 protein labeling (DMRV model mice [2]; 400 mg/kg): negative; rimmed vacuoles and muscle cell atrophy (DMRV model mice [2]; 400 mg/kg): no rimmed vacuole or muscle cell atrophy |
| CC(=O)N[C@@H]1C(O)O[C@H](CO)[C@@H](O)[C@@H]1O (stereo partly shown) [ManNAc, N-acetylmannosamine, reference compound] | significantly lower | significantly higher | significantly higher | significantly higher | negative | only the placebo group was fluorescently labeled | Only the placebo group was also labeled | no rimmed vacuole or muscle cell atrophy | markedly reduced | significantly lower | significantly lower | – |
| CC(=O)N[C@H]1[C@H]([C@H](O)[C@H](O)CO)OC(O)(C(=O)O)C[C@@H]1O (stereo partly shown) [NeuAc, N-acetylneuraminic acid] | significantly lower | significantly higher | significantly higher | significantly higher | negative | only the placebo group was fluorescently labeled | Only the placebo group was also labeled | no rimmed vacuole or muscle cell atrophy | markedly reduced | significantly lower | significantly lower | – |
| CC(=O)N[C@H]1[C@H]([C@H](O)[C@H](O)CO)O[C@@](O[C@H]2[C@@H](O)[C@@H](CO)O[C@@H](O[C@H]3[C@H](O)[C@@H](O)C(O)O[C@@H]3CO)[C@@H]2O)(C(=O)O)C[C@@H]1O (stereo partly shown) [sialyllactose, NeuAcα2-3Galβ1-4Glc] | significantly lower | significantly higher | significantly higher | significantly higher | negative | only the placebo group was fluorescently labeled | Only the placebo group was also labeled | no rimmed vacuole or muscle cell atrophy | markedly reduced | significantly lower | significantly lower | – |
